Experimental data published in ChEMBL document CHEMBL1201862, “PubChem BioAssay data set” (2004).
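These data come from cells grown in 96-well plates and exposed to compound for 48 hours at five concentrations. The concentration for 50% growth inhibition is given as GI50.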 Calls of active or inactive are those of the source. Cut-off read from the data, not from the text of the source: active = GI50 up to about 1.1 µM and inactive = higher.

How the values were obtained:
Assay in all cases: NCI-60 cell line screen, 48 h
786-0 = system: 786-0
A549 = system: A549
ACHN = system: ACHN
BT-549 = system: BT-549
CAKI-1 = system: CAKI-1
CCRF-CEM = system: CCRF-CEM
COLO 205 = system: COLO 205
DU-145 = system: DU-145
EKVX = system: EKVX
HCC 2998 = system: HCC 2998
HCT-116 = system: HCT-116
HCT-15 = system: HCT-15
HL-60 = system: HL-60
HOP-62 = system: HOP-62
HOP-92 = system: HOP-92
HT-29 = system: HT-29
Hs-578T = system: Hs-578T
IGROV-1 = system: IGROV-1
K562 = system: K562
KM12 = system: KM12
LOX IMVI = system: LOX IMVI
M14 = system: M14
MCF7 = system: MCF7
MDA-MB-231 = system: MDA-MB-231
MDA-MB-435 = system: MDA-MB-435
MDA-N = system: MDA-N
MOLT-4 = system: MOLT-4
Malme-3M = system: Malme-3M
NCI-H226 = system: NCI-H226
NCI-H23 = system: NCI-H23
NCI-H460 = system: NCI-H460
NCI-H522 = system: NCI-H522
NCI/ADR-RES = system: NCI/ADR-RES
OVCAR-3 = system: OVCAR-3
OVCAR-4 = system: OVCAR-4
OVCAR-8 = system: OVCAR-8
PC-3 = system: PC-3
RPMI-8226 = system: RPMI-8226
RXF 393 = system: RXF 393
SF-268 = system: SF-268
SF-295 = system: SF-295
SF-539 = system: SF-539
SK-MEL-28 = system: SK-MEL-28
SK-MEL-2 = system: SK-MEL-2
SK-MEL-5 = system: SK-MEL-5
SK-OV-3 = system: SK-OV-3
SN12C = system: SN12C
SNB-19 = system: SNB-19
SNB-75 = system: SNB-75
SR = system: SR
SW-620 = system: SW-620
T47D = system: T47D
TK-10 = system: TK-10
U-251 = system: U-251
UACC-257 = system: UACC-257
UACC-62 = system: UACC-62
UO-31 = system: UO-31
A498 = system: A498
OVCAR-5 = system: OVCAR-5

Measured: GI50

c1coc(C2=Nc3cccc4cccc(c34)N2)c1
inactive: 786-0 53.3 µM | A549 60.3 µM | ACHN 22.1 µM | BT-549 44.5 µM | CAKI-1 35.4 µM | CCRF-CEM 32.1 µM | COLO 205 14.8 µM | DU-145 > 100 µM | EKVX 55.2 µM | HCC 2998 34.9 µM | HCT-116 23.1 µM | HL-60 19.5 µM | HOP-62 > 100 µM | HOP-92 25.5 µM | HT-29 23.2 µM | Hs-578T 55.6 µM | IGROV-1 > 100 µM | K562 38.7 µM | KM12 19.6 µM | LOX IMVI 41.9 µM | M14 25.4 µM | MCF7 24.1 µM | MDA-MB-231 34.6 µM | MDA-MB-435 50.8 µM | MDA-N 41.1 µM | MOLT-4 > 100 µM | Malme-3M 93.8 µM | NCI-H226 > 100 µM | NCI-H23 44.8 µM | NCI-H460 34.8 µM | NCI-H522 11.2 µM | NCI/ADR-RES 18.7 µM | OVCAR-3 24.2 µM | OVCAR-4 29.9 µM | OVCAR-8 39.3 µM | PC-3 24.2 µM | RPMI-8226 71.8 µM | RXF 393 25.9 µM | SF-268 68.2 µM | SF-295 34 µM | SF-539 15 µM | SK-MEL-28 72.9 µM | SK-MEL-2 29.3 µM | SK-MEL-5 34.9 µM | SK-OV-3 98.4 µM | SN12C 28.4 µM | SNB-19 > 100 µM | SNB-75 65.5 µM | SR > 100 µM | SW-620 38.6 µM | T47D 8.49 µM | TK-10 > 100 µM | U-251 69 µM | UACC-257 41.4 µM | UACC-62 35.5 µM | UO-31 16.2 µM
26.5 µM: HCT-15

COC(=O)c1cn(CCCCO)nn1
inactive: 786-0 > 100 µM | A549 > 100 µM | ACHN > 100 µM | BT-549 > 100 µM | CAKI-1 > 100 µM | CCRF-CEM > 100 µM | COLO 205 > 100 µM | DU-145 > 100 µM | EKVX > 100 µM | HCC 2998 > 100 µM | HCT-116 > 100 µM | HOP-62 > 100 µM | HOP-92 > 100 µM | HT-29 > 100 µM | Hs-578T > 100 µM | IGROV-1 > 100 µM | KM12 > 100 µM | LOX IMVI > 100 µM | MCF7 > 100 µM | MDA-MB-231 > 100 µM | MDA-MB-435 > 100 µM | MDA-N > 100 µM | MOLT-4 > 100 µM | Malme-3M > 100 µM | NCI-H226 > 100 µM | NCI-H23 > 100 µM | NCI-H460 > 100 µM | NCI/ADR-RES > 100 µM | OVCAR-4 > 100 µM | OVCAR-8 > 100 µM | PC-3 > 100 µM | RXF 393 > 100 µM | SF-268 > 100 µM | SF-295 > 100 µM | SF-539 > 100 µM | SK-MEL-28 > 100 µM | SK-MEL-2 > 100 µM | SK-MEL-5 > 100 µM | SN12C > 100 µM | SNB-19 > 100 µM | SNB-75 > 100 µM | SR > 100 µM | SW-620 > 100 µM | T47D 3.65 µM | TK-10 > 100 µM | U-251 > 100 µM | UACC-257 > 100 µM | UACC-62 > 100 µM | UO-31 > 100 µM
> 100 µM: HCT-15

O=C1N=C(SC(SC2=NC(=O)C3(NN2)c2ccccc2-c2ccccc23)=C(SC2=NC(=O)C3(NN2)c2ccccc2-c2ccccc23)SC2=NC(=O)C3(NN2)c2ccccc2-c2ccccc23)NNC12c1ccccc1-c1ccccc12
active: MOLT-4 0.437 µM | T47D 0.935 µM
3.62 µM: HCT-15
inactive: 786-0 9.66 µM | A549 6.65 µM | ACHN 2.07 µM | BT-549 6.53 µM | CAKI-1 > 10 µM | CCRF-CEM 5.21 µM | COLO 205 7.21 µM | DU-145 > 10 µM | EKVX 2.59 µM | HCC 2998 > 10 µM | HCT-116 5.55 µM | HOP-62 > 10 µM | HOP-92 > 10 µM | HT-29 6.61 µM | Hs-578T > 10 µM | IGROV-1 8.2 µM | K562 5.11 µM | KM12 9.29 µM | LOX IMVI > 10 µM | M14 8.71 µM | MCF7 4.27 µM | MDA-MB-231 4.71 µM | MDA-MB-435 > 10 µM | MDA-N 5.36 µM | Malme-3M > 10 µM | NCI-H226 2.76 µM | NCI-H23 7.59 µM | NCI-H460 3.33 µM | NCI-H522 4.54 µM | NCI/ADR-RES 3.66 µM | OVCAR-4 8.07 µM | OVCAR-8 7.21 µM | PC-3 4.62 µM | RPMI-8226 3.59 µM | RXF 393 > 10 µM | SF-268 > 10 µM | SF-295 > 10 µM | SF-539 > 10 µM | SK-MEL-28 > 10 µM | SK-MEL-5 3.22 µM | SK-OV-3 > 10 µM | SN12C 6.5 µM | SNB-19 > 10 µM | SNB-75 7.96 µM | SR 3.24 µM | SW-620 > 10 µM | TK-10 > 10 µM | UACC-257 5.64 µM | UACC-62 6.53 µM | UO-31 3.18 µM

CC1CC(C#N)=C2NCCN2C1=O (stereo not given)
> 100 µM: HCT-15
inactive: 786-0 > 100 µM | A549 > 100 µM | BT-549 > 100 µM | CAKI-1 51.9 µM | CCRF-CEM > 100 µM | COLO 205 22.1 µM | DU-145 > 100 µM | EKVX > 100 µM | HCC 2998 > 100 µM | HL-60 > 100 µM | HOP-62 > 100 µM | HT-29 > 100 µM | Hs-578T > 100 µM | IGROV-1 > 100 µM | K562 > 100 µM | KM12 > 100 µM | LOX IMVI 30.8 µM | M14 19.4 µM | MCF7 20.8 µM | MDA-MB-231 > 100 µM | MDA-MB-435 18.3 µM | MDA-N 16.4 µM | MOLT-4 > 100 µM | Malme-3M 94 µM | NCI-H226 > 100 µM | NCI-H23 > 100 µM | NCI-H460 > 100 µM | NCI-H522 95.1 µM | NCI/ADR-RES > 100 µM | OVCAR-3 > 100 µM | OVCAR-4 > 100 µM | OVCAR-8 > 100 µM | PC-3 > 100 µM | RPMI-8226 > 100 µM | RXF 393 > 100 µM | SF-268 > 100 µM | SF-295 > 100 µM | SF-539 > 100 µM | SK-MEL-28 > 100 µM | SK-MEL-2 > 100 µM | SK-MEL-5 15.2 µM | SK-OV-3 > 100 µM | SN12C > 100 µM | SNB-19 > 100 µM | SNB-75 > 100 µM | SR > 100 µM | SW-620 31.9 µM | T47D > 100 µM | TK-10 > 100 µM | U-251 > 100 µM | UACC-257 78 µM | UACC-62 > 10 µM | UO-31 > 100 µM

CC1(C)OC1COc1c2occc2cc2ccc(=O)oc12 (stereo not given)
> 100 µM: HCT-15
inactive: 786-0 > 100 µM | A498 > 100 µM | A549 67.6 µM | ACHN > 100 µM | BT-549 38.8 µM | CAKI-1 > 100 µM | CCRF-CEM > 100 µM | COLO 205 > 100 µM | DU-145 > 100 µM | EKVX 58.6 µM | HCC 2998 > 100 µM | HCT-116 > 100 µM | HL-60 70.5 µM | HOP-62 > 100 µM | HOP-92 > 100 µM | HT-29 > 100 µM | Hs-578T > 100 µM | IGROV-1 > 100 µM | K562 > 100 µM | KM12 > 100 µM | LOX IMVI > 100 µM | M14 > 100 µM | MCF7 > 100 µM | MDA-MB-231 > 100 µM | MDA-MB-435 > 100 µM | MDA-N > 100 µM | MOLT-4 79.3 µM | Malme-3M > 100 µM | NCI-H226 > 100 µM | NCI-H23 > 100 µM | NCI-H460 40.6 µM | NCI-H522 > 100 µM | NCI/ADR-RES > 100 µM | OVCAR-3 > 100 µM | OVCAR-4 > 100 µM | OVCAR-5 > 100 µM | OVCAR-8 60.5 µM | PC-3 > 100 µM | RPMI-8226 39.2 µM | RXF 393 > 100 µM | SF-268 > 100 µM | SF-295 > 100 µM | SF-539 > 100 µM | SK-MEL-28 > 100 µM | SK-MEL-2 > 100 µM | SK-MEL-5 86.3 µM | SN12C > 100 µM | SNB-19 > 100 µM | SNB-75 > 100 µM | SW-620 > 100 µM | T47D 79.1 µM | U-251 > 100 µM | UACC-257 > 100 µM | UACC-62 33.1 µM | UO-31 72.4 µM
